The record followed here is ChEMBL document CHEMBL1125385, “Novel inhibitors of prolyl 4-hydroxylase. 2. 5-Amide substituted pyridine-2-carboxylic acids” (J Med Chem, 1992).

This experiment concerns Prolyl 4-hydroxylase (Gallus gallus). The experiment can be described thus: Inhibition of Prolyl 4-hydroxylase activity in cultured embryonic chick tendon cells; NA=Not active.
As to `CN(C)c1ccc(C(=O)Nc2ccc(C(=O)O)nc2)cc1`, the IC50 entry is listed as “Not Active”.
To `COc1ccc(NC(=O)c2ccc(C(=O)O)nc2)c(OC)c1` belongs “Not Active”; to `COc1ccccc1NC(=O)c1ccc(C(=O)O)nc1`, “Not Active”.
For `Cc1ccc(NC(=O)c2ccc(C(=O)O)nc2)cc1`, the IC50 result is reported as “Not Active”.
To `O=C(O)c1ccc(NC(=O)c2ccccc2F)cn1` belongs “Not Active”.
For `O=C(Nc1ccccc1Cl)c1ccc(C(=O)O)nc1`, the IC50 result is “Not Active”.
To `CN(C)c1ccc(NC(=O)c2ccc(C(=O)O)nc2)cc1` belongs “Not Active”; to `CCOc1ccc(C(=O)Nc2ccc(C(=O)O)nc2)cc1`, “Not Active”.
